Experiments:
Test in all cases: relative viability (nuclei count vs DMSO), 5 days (fraction); higher = more cells survive
[1] = compound: C1COCCN1C2=NC(=NC3=C2OC4=C3C=CC=N4)C5=CC(=CC=C5)NC(=O)C6=CN=C(C=C6)N + Cc1cc(Nc2cc(N3CCN(C)CC3)nc(Sc3ccc(NC(=O)C4CC4)cc3)n2)n[nH]1 [Tozasertib] (partner 0.1 µM)
Procedure, shortened: (§1)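 Cells from lung cancer lines were seeded into 1536-well plates and, one day later, dosed by pin tool. Treatments were either a single drug or a fixed dose of an anchor drug with five library-drug doses (not always all listed) in √10 steps. After 5 days, nuclei were stained in a one-step fixation (final 0.05% Triton X-100, 1% formaldehyde, 1 ug/ml Hoechst) and counted on 4× images, and relative viability is the treated-to-vehicle nuclei ratio, as the median of duplicate plates.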

SGI-1776 + Decitabine = compound: CN1CCC(CNc2ccc3ncc(-c4cccc(OC(F)(F)F)c4)n3n2)CC1 [SGI-1776] + Nc1ncn([C@H]2C[C@H](O)[C@@H](CO)O2)c(=O)n1 [Decitabine] (partner 2 µM)
Procedure, shortened: as §1

SGI-1776 + Phenformin = compound: CN1CCC(CNc2ccc3ncc(-c4cccc(OC(F)(F)F)c4)n3n2)CC1 [SGI-1776] + N=C(N)NC(=N)NCCc1ccccc1 [Phenformin] (partner 250 µM)
Procedure, shortened: as §1

[2] = compound: C1COCCN1C2=NC(=NC3=C2OC4=C3C=CC=N4)C5=CC(=CC=C5)NC(=O)C6=CN=C(C=C6)N + CC(C)C[C@H](NC(=O)[C@H](Cc1ccccc1)NC(=O)c1cnccn1)B(O)O [Bortezomib] (partner 0.002 µM)
Procedure, shortened: as §1

Cell Line	relative viability ([1]; first compound 0.02 µM)	relative viability ([1]; first compound 0.06325 µM)	relative viability ([1]; first compound 0.2 µM)	relative viability ([1]; first compound 0.6325 µM)	relative viability ([1]; first compound 2 µM)	relative viability (SGI-1776 + Decitabine; first compound 0.08 µM)	relative viability (SGI-1776 + Decitabine; first compound 0.8 µM)	relative viability (SGI-1776 + Decitabine; first compound 2.53 µM)	relative viability (SGI-1776 + Decitabine; first compound 8 µM)	relative viability (SGI-1776 + Phenformin; first compound 0.08 µM)	relative viability (SGI-1776 + Phenformin; first compound 0.8 µM)	relative viability (SGI-1776 + Phenformin; first compound 2.53 µM)	relative viability (SGI-1776 + Phenformin; first compound 8 µM)	relative viability ([2]; first compound 0.02 µM)	relative viability ([2]; first compound 0.06325 µM)	relative viability ([2]; first compound 0.2 µM)	relative viability ([2]; first compound 0.6325 µM)	relative viability ([2]; first compound 2 µM)
201T	0.959	1.04	0.915	0.913	0.452	0.847	0.894	0.886	0.827	0.442	0.461	0.415	0.471	0.994	1.1	1.02	1.11	0.97
A549						0.303	0.238	0.285	0.097	0.122	0.148	0.11	0.155					
A-427	0.187	0.225	0.199	0.175	0.219	0.601	0.587	0.539	0.521	0.258	0.277	0.275	0.209	0.981	1.02	0.945	0.91	0.652
ABC-1	0.177	0.183	0.167	0.406	0.222	1.08	1.09	0.909	0.954	0.23	0.24	0.219	0.236	0.311	0.315	0.288	0.298	0.302
CAL-12T	0.325	0.27	0.206	0.24	0.177					0.558	0.647	0.531	0.558	0.935	0.98	0.861	0.871	0.84
Calu-6														1.1	1.18	0.919	0.957	0.806
EBC-1														0.541	0.521	0.431	0.455	0.417
IA-LM															0.78	0.537	0.645	0.39
LK-2	0.172	0.156	0.167	0.154	0.176	0.323	0.356	0.3	0.286	0.396	0.515	0.428	0.168					
NCI-H358		0.117	0.0984	0.099	0.0866	0.223	0.245	0.191	0.133	0.325	0.34	0.313	0.214					
NCI-H522	0.491	0.497	0.472	0.374	0.541	0.632	0.595	0.728	0.562	0.708	0.676	0.698	0.563					
NCI-H1299														1.06	1.05	1.02	1.03	0.798
NCI-H1395	0.78	0.709	0.772	0.719	0.576	0.721	0.708	0.58	0.674	0.464	0.434	0.46	0.413					
NCI-H1563										0.694	0.595	0.63	0.548	0.883	0.81	0.84	0.665	0.589
NCI-H1623	0.376	0.457	0.411	0.432	0.461					0.611	0.571	0.556	0.626					
NCI-H1648	0.468	0.48	0.473		0.617	0.432	0.414	0.461	0.497									
NCI-H1703														0.229	0.278	0.249	0.267	0.236
NCI-H1792						0.651	0.508	0.658	0.527	0.335	0.257	0.135	0.257	1.2	0.905	0.994	0.86	0.374
NCI-H1793	0.314	0.305	0.262	0.29	0.279	0.49	0.512	0.516	0.509	0.389	0.219	0.262	0.249					
NCI-H1944	0.259	0.263	0.228	0.209	0.173	0.427	0.439	0.468	0.396	0.186	0.188	0.189	0.164					
NCI-H2170	0.742	0.828	0.633	0.703	0.445	0.478	0.441	0.393	0.475	0.388	0.382	0.345	0.307					
NCI-H2228	0.227	0.204	0.193	0.213	0.186					0.345	0.327	0.286	0.164	1.25	1.1	0.975	0.84	0.488
NCI-H2342	0.505	0.483	0.458	0.405	0.451	0.776	0.707	0.658	0.712	0.696	0.669	0.532	0.501					
SK-MES-1	0.957	1.01	0.824	0.851	0.362	0.365	0.372	0.367	0.303	0.643	0.593	0.53	0.493					
SW 900	0.519	0.762	0.371	0.373	0.279	0.368	0.412	0.49	0.456	0.731	0.563	0.538	0.348					
